Measured values published in paper PMC4774911, “Biochemical Screening of Five Protein Kinases from Plasmodium falciparum against 14,000 Cell-Active Compounds” (PLoS ONE, 2016).
Where “and” joins values, the source holds several entries; their conditions need not be identical. Equal values may be shown once.

Legend:
Experiment in all cases: biochemical
Design in all cases: endogenous in cells; host or cells: K562 cell extract; species or system K562 (extract); replicate k of n = 2 (each experiment ID is one independent experiment; two experiment IDs per compound)
Conditions in all cases: read-out: KDapp
[1] = molecular target: T1, MARK4 (Homo sapiens, UniProt Q96L34)
T1 sequence (Q96L34 1-752): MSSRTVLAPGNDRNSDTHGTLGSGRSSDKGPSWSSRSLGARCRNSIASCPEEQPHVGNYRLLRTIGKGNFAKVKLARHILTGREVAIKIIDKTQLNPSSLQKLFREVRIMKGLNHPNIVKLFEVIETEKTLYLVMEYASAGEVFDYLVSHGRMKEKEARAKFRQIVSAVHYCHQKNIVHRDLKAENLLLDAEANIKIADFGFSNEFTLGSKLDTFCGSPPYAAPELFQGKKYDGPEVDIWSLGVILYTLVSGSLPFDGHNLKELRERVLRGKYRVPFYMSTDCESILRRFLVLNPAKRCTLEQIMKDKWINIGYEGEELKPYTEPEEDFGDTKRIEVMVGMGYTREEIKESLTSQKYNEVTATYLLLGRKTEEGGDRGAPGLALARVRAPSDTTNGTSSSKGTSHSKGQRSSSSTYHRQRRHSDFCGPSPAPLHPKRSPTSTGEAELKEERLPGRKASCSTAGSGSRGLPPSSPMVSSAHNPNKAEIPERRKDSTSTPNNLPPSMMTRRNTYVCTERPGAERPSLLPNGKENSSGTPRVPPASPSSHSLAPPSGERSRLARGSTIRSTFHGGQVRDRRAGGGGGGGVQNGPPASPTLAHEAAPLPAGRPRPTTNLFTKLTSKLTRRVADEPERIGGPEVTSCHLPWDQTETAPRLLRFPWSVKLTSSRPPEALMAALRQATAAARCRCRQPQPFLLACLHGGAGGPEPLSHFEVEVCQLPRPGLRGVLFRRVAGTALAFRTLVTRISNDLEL

[2] = molecular target: AAK1 (Homo sapiens, UniProt Q2M2I8)
[3] = molecular target: T2, PLK4 (Homo sapiens, UniProt O00444)
T2 sequence (O00444 1-970): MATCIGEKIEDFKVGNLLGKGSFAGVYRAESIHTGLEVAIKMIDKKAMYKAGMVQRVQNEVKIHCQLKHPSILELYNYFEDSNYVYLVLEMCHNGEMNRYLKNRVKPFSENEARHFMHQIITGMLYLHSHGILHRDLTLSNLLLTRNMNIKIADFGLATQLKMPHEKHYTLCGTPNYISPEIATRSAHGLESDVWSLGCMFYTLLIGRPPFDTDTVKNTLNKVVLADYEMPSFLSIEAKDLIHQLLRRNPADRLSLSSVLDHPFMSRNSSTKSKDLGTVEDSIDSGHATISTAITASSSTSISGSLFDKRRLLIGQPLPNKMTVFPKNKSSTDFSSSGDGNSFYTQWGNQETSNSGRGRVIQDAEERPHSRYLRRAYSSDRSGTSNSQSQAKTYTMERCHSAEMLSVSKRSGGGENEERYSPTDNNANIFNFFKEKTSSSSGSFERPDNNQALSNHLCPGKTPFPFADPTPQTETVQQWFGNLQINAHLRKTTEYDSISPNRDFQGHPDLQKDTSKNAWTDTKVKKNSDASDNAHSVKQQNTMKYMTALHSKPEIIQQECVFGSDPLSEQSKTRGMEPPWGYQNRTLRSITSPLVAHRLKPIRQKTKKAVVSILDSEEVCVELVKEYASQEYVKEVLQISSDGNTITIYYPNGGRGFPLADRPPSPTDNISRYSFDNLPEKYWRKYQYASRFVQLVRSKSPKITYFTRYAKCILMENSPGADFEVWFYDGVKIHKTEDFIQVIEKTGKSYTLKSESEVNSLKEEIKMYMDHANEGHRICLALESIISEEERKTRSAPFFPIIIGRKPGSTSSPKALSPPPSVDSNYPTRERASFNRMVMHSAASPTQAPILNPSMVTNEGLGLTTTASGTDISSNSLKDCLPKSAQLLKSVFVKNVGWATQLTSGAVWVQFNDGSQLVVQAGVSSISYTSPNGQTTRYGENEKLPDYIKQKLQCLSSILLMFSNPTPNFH

Chain of AAK1 (Q2M2I8 whole entry): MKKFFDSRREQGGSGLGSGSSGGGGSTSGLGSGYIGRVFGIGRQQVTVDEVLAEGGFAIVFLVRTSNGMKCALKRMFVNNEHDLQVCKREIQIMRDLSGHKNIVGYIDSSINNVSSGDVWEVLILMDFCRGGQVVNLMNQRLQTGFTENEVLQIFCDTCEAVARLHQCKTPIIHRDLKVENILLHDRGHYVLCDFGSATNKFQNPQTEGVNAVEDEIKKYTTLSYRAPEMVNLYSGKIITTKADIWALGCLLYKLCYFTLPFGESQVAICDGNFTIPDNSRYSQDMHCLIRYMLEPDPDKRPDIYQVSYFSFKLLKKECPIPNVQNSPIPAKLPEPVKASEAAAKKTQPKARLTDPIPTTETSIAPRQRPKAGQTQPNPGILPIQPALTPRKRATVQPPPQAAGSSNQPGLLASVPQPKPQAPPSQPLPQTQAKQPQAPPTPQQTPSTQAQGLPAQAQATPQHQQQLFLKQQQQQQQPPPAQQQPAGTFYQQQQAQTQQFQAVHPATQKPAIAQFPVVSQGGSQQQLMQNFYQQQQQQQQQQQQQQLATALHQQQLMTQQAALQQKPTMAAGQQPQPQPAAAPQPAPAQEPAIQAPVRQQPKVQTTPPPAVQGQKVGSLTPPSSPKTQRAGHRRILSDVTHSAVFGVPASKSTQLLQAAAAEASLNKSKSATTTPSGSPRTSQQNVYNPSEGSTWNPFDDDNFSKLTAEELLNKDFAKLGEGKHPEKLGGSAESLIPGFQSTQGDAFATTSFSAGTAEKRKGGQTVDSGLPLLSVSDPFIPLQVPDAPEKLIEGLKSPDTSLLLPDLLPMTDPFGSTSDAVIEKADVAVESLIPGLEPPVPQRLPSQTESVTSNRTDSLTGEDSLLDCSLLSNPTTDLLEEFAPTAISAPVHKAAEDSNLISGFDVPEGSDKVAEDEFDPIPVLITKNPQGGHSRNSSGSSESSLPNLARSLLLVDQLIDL

Structure (SMILES)	Kd [1]	Kd [2] [nM]	Kd [3]
CN(C)CC(O)COc1ccc(Nc2ncc([N+](=O)[O-])c(Nc3ccccc3O)n2)cc1.O=C(O)C(F)(F)F (stereo not drawn) [TCMDC-141399]	6.16 µM and 3.9 µM		
CN1CCN(c2ccc(Nc3ncc(C#N)c(Nc4ccccc4C(N)=O)n3)cc2)CC1.Cl [TCMDC-134116]		36.7	53.9 nM and 69.2 nM
